Experimental data published in patent US20250332326A1, “METHOD OF GENERATING 3D POROUS HYBRID PROTEIN NANOSCAFFOLD” (Rutgers, The State University of New Jersey, priority 2024, published 2025).

Key:
[1] = tested on: rat nucleotomy disc injury model; experiment: Rat nucleotomy disc injury model, histological and MRI analysis 6 WPI; type: in vivo
Procedure: Rats were anesthetized by injection of 2 mg/kg midazolam and 0.15 mg/kg medetomidine and butorphanol tartrate. After rats reached deep anesthesia, which was confirmed by tail pinching, posterior midline incision was performed at the Co6-7 level to expose the intervertebral disc. A no. 11 scalpel was used for the incision of posterior AF and the longitudinal cut was around 2 mm. […] After the nucleotomy, nanoscaffolds were pushed into the empty space using a micropipette tip. As controls, PBS was injected into the empty space after the nucleotomy. A heating pad was provided underneath the rats throughout the procedure and the rats were observed during recovery from the anesthesia.
MRI was performed on rats 6 WPI using a Bruker BioSpec (9.4 T) MRI scanner in order to investigate the regeneration of discs after the nucleotomy, which can be quantified by the signal intensities and water content through T2-weighted MRI. In the MRI study, time-to-repetition was set as 5,000 ms; time-toecho was set to 30 ms; and coronal axial planes were imaged for the rat discs. MRI index and signal intensities were used for the calculation of degree of damage of coccygeal disc tissues. Region of interest (ROI) was defined as the higher intensity area in the coronal plane and ROI was quantified using Fiji (Image J). MRI index was measured with blind tests by two independent observers.
At 6 WPI, animals were all sacrificed and disc tissues were harvested and fixed using 10% buffered formalin for one week. Decalcification was then performed using Rapid Cal Immuno™ (BBC biochemical) for another 2 weeks. Disc tissues were then paraffin-embedded and sectioned in the coronal directions with a Leica microtome. After dewaxing, rehydration, and permeabilization by methanol, H&E, immunohistofluorescent, and Safranin-O staining were performed on different sections. For H&E staining, tissue sections were stained in a solution with Mayer's Hematoxylin for 5 minutes then washed with water and counterstained in alcoholic solution of eosin for another minute without rinsing. […] For the Safranin-O staining, tissues were stained for 10 minutes by Weigert's iron hematoxylin solution followed by extensive washing with water. Then fast green solution was used for the second staining for 5 minutes followed by brief rinsing with 1% acetic acid solution and then stained with 0.1% Safranin-O solution. Afterwards, tissues were dehydrated and cleared using identical protocol as mentioned in the H&E staining. Safranin-O staining score was based on an 8-point scale previous used for IVD tissue analysis, and if no degenerative features were found a zero score was assigned. For the immunohistofluorescent and immunohistochemistry staining of inflammatory (e.g., MMP13 and IL1β), ECM (aggrecan, Collagen II) and pain (e.g., CGRP) markers, disc tissues with fixation and decalfication were first dewaxed, sectioned into 10 μm sections, and stained with primary antibodies followed by 24 hours incubation. After washing with PBS containing 0.1% Tween 20, the secondary antibodies were added and incubated for 2 hours. Finally, the nucleus was stained with DAPI for 15 minutes. Sections were then examined under a fluorescent or colorimetric microscope with a Zeiss 880 confocal microscope and Olympus microscope, respectively. ImageJ was used for quantification in an automatic manner.

[2] = tested on: LPS-stimulated THP-1-derived macrophages; experiment: qRT-PCR of inflammatory genes in LPS-stimulated macrophages co-cultured with scaffolds; type: cell-based, human; conditions: Transwell system, 50, 100, 200 μg/mL BETi loading
Procedure: THP-1 monocytes were purchased from ATCC® and cultured using standard protocol provided by the vendor (10% FBS in 1640 RPMI basal media supplemented with […] beta-mercaptoethanol). Media was refreshed every other day. THP-1 monocytes were cultured at a density of 100,000 to 500,000 cells per mL. When they proliferate above the density, cells were centrifuged down for media change. To convert suspension culture of THP-1 monocytes into adherent macrophages, 200 ng/ml of phorbol myristate acetate (PMA) was added into the media then split into 24 well plates at designated density (100,000 per well). PMA was treated for 1-3 days then fresh growth media without PMA was added. To stimulate the macrophages, 1,000 ng/mL lipopolysaccharide (LPS, Sigma Aldrich) was included in the media for 4 hours. Macrophages were converted from THP-1 monocytes through PMA activation. Then different scaffold conditions, including chitosan nanoscaffold, 3D-PHP nanoscaffold, and control (PBS only), as well as 3D-PHP nanoscaffold loaded with low (50 μg), medium (100 μg) and high (200 μg) dosages of BETi (JQ-1 from Tocris) drugs were added into the macrophage cultured followed by the addition of 1 μg/mL LPS for stimulation of macrophages. […] Cells were lysed with Trizol®, and then the lysates were stored at −80° C. until ready for use. […]

## Cc1sc2c(c1C)C(c1ccc(Cl)cc1)=N[C@@H](CC(=O)OC(C)(C)C)c1nnc(C)n1-2 [BETi, JQ1]
[1]
  IL-1β expression (positive area, immunostaining): did not induce a significant reduction
  MMP-13 levels (immunostaining): did not suppress
[1]; compared to injury alone
  CGRP signals (pain marker, positive area ratio): considerably less reduction
[1]; implanted or injected on day of nucleotomy
  disc integrity / healthy disc tissue (H&E staining, MRI index): slightly improved the restoration of the disc structure
[1]; result in words
  up-regulation of Collagen II and aggrecan: did not result in noticeable up-regulation
[2]
  inflammatory responses (pro- and anti-inflammatory gene expression): significantly lowered the inflammatory responses
